Source: ChEMBL document CHEMBL3632469, “Discovery of dihydroquinazolinone derivatives as potent, selective, and CNS-penetrant M(1) and M(4) muscarinic acetylcholine receptors agonists” (Bioorg Med Chem Lett, 2015)

Assays:
[1] = target: T1, Muscarinic acetylcholine receptor M1 (Homo sapiens) (UniProt P11229); assay: Agonist activity at human muscarinic M1 acetylcholine receptor expressed in CHO cells assessed as calcium mobilization at 0.3 uM by FLIPR assay; format: functional, cell-based
T1 sequence (whole entry): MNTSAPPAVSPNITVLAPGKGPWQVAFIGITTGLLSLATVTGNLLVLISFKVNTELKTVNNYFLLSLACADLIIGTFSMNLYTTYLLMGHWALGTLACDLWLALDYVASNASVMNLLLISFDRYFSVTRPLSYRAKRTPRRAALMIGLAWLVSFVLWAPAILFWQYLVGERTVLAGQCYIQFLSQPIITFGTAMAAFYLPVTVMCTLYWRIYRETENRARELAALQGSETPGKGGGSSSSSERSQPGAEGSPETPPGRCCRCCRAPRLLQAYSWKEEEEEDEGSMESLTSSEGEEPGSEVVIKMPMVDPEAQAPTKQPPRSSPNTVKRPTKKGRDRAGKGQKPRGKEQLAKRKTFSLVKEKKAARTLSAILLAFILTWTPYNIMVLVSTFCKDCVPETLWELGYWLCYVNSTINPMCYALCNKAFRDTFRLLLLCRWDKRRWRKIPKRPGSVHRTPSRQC

[2] = target: Muscarinic acetylcholine receptor M3 (Homo sapiens) (UniProt P20309); assay: Agonist activity at human muscarinic M3 acetylcholine receptor expressed in CHO cells assessed as calcium mobilization at 0.3 uM by FLIPR assay; format: functional, cell-based
[3] = target: Aryl hydrocarbon receptor (Homo sapiens, UniProt P35869); assay: Induction of human AhR
[4] = target: Muscarinic acetylcholine receptor M1 (Homo sapiens, UniProt P11229); assay: Agonist activity at human muscarinic M1 acetylcholine receptor expressed in CHO cells assessed as calcium mobilization by FLIPR assay; format: functional, cell-based
[5] = target: Muscarinic acetylcholine receptor M3 (Homo sapiens) (UniProt P20309); assay: Agonist activity at human muscarinic M3 acetylcholine receptor expressed in CHO cells assessed as calcium mobilization at 30 uM by FLIPR assay; format: functional, cell-based
[6] = target: T2, Muscarinic acetylcholine receptor M4 (Homo sapiens) (UniProt P08173); assay: Partial agonist activity at human muscarinic M4 acetylcholine receptor expressed in CHO cells co-expressing Galpha16 assessed as calcium mobilization by FLIPR assay relative to control; format: functional, cell-based
T2 sequence (whole entry): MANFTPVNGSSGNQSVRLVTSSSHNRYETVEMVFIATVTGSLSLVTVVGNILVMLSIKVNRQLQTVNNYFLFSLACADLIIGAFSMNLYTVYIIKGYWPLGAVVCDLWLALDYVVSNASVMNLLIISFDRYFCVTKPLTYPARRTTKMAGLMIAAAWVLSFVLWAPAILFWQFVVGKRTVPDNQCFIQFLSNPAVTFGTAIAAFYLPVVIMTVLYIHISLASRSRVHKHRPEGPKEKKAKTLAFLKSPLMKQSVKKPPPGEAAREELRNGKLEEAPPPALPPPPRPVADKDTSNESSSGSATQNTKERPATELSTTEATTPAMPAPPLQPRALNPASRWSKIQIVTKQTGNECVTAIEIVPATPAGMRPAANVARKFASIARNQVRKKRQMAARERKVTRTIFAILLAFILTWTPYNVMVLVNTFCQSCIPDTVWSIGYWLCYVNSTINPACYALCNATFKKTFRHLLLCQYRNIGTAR

[7] = target: D(1B) dopamine receptor (Homo sapiens) (UniProt P21918); assay: Agonist activity at dopamine D5 receptor (unknown origin) expressed in CHO cells assessed as calcium mobilization at 3 uM; format: functional, cell-based
[8] = target: Histamine H2 receptor (Homo sapiens) (UniProt P25021); assay: Agonist activity at histamine H2 receptor (unknown origin) expressed in CHO cells assessed as calcium mobilization at 3 uM; format: functional, cell-based
[9] = target: Neuropeptide Y receptor type 2 (Homo sapiens) (UniProt P49146); assay: Agonist activity at NPY2 receptor (unknown origin) expressed in CHO cells assessed as calcium mobilization at 3 uM; format: functional, cell-based
[10] = target: Mu-type opioid receptor (Homo sapiens) (UniProt P35372); assay: Agonist activity at ppiate mu receptor (unknown origin) expressed in CHO cells assessed as calcium mobilization at 3 uM; format: functional, cell-based
[11] = target: 5-hydroxytryptamine receptor 2A (Homo sapiens) (UniProt P28223); assay: Agonist activity at 5-HT2a receptor (unknown origin) expressed in CHO cells assessed as calcium mobilization at 3 uM; format: functional, cell-based
[12] = target: 5-hydroxytryptamine receptor 2C (Homo sapiens) (UniProt P28335); assay: Agonist activity at 5-HT2C receptor (unknown origin) expressed in CHO cells assessed as calcium mobilization at 3 uM; format: functional, cell-based
[13] = target: 5-hydroxytryptamine receptor 6 (Homo sapiens) (UniProt P50406); assay: Agonist activity at 5-HT6 receptor (unknown origin) expressed in CHO cells assessed as calcium mobilization at 3 uM; format: functional, cell-based
[14] = target: Adenosine receptor A2a (Homo sapiens) (UniProt P29274); assay: Antagonist activity at adenosine a2a receptor (unknown origin) expressed in CHO cells assessed as calcium mobilization at 3 uM; format: functional, cell-based
[15] = target: Adrenergic receptor alpha-1 (Homo sapiens) (UniProt P35348+P25100+P35368); assay: Antagonist activity at adrenergic a1 receptor (unknown origin) expressed in CHO cells assessed as calcium mobilization at 3 uM; format: functional, cell-based
[16] = target: Alpha-2C adrenergic receptor (Homo sapiens) (UniProt P18825); assay: Antagonist activity at adrenergic a2C receptor (unknown origin) expressed in CHO cells assessed as calcium mobilization at 3 uM; format: functional, cell-based
[17] = target: Beta-1 adrenergic receptor (Homo sapiens) (UniProt P08588); assay: Antagonist activity at adrenergic beta1 receptor (unknown origin) expressed in CHO cells assessed as calcium mobilization at 3 uM; format: functional, cell-based
[18] = target: Beta-2 adrenergic receptor (Homo sapiens) (UniProt P07550); assay: Antagonist activity at adrenergic beta2 receptor (unknown origin) expressed in CHO cells assessed as calcium mobilization at 3 uM; format: functional, cell-based
[19] = target: D(4) dopamine receptor (Homo sapiens) (UniProt P21917); assay: Antagonist activity at dopamine D4 receptor (unknown origin) expressed in CHO cells assessed as calcium mobilization at 3 uM; format: functional, cell-based
[20] = target: Histamine H1 receptor (Homo sapiens) (UniProt P35367); assay: Antagonist activity at histamine H1 receptor (unknown origin) expressed in CHO cells assessed as calcium mobilization at 3 uM; format: functional, cell-based
[21] = target: Cysteinyl leukotriene receptor 1 (Homo sapiens) (UniProt Q9Y271); assay: Antagonist activity at CysLT1 receptor (unknown origin) expressed in CHO cells assessed as calcium mobilization at 3 uM; format: functional, cell-based
[22] = target: 5-hydroxytryptamine receptor 7 (Homo sapiens) (UniProt P34969); assay: Antagonist activity at 5-HT7B receptor (unknown origin) expressed in CHO cells assessed as calcium mobilization at 3 uM; format: functional, cell-based
[23] = target: P2Y purinoceptor 1 (Homo sapiens) (UniProt P47900); assay: Antagonist activity at P2Y1 receptor (unknown origin) expressed in CHO cells assessed as calcium mobilization at 3 uM; format: functional, cell-based
[24] = target: Adenosine receptor A2b (Homo sapiens) (UniProt P29275); assay: Agonist activity at adenosine a2B receptor (unknown origin) expressed in CHO cells assessed as calcium mobilization at 3 uM

Muscarinic acetylcholine receptor M3 (Homo sapiens), sequence (P20309 whole entry, looked up): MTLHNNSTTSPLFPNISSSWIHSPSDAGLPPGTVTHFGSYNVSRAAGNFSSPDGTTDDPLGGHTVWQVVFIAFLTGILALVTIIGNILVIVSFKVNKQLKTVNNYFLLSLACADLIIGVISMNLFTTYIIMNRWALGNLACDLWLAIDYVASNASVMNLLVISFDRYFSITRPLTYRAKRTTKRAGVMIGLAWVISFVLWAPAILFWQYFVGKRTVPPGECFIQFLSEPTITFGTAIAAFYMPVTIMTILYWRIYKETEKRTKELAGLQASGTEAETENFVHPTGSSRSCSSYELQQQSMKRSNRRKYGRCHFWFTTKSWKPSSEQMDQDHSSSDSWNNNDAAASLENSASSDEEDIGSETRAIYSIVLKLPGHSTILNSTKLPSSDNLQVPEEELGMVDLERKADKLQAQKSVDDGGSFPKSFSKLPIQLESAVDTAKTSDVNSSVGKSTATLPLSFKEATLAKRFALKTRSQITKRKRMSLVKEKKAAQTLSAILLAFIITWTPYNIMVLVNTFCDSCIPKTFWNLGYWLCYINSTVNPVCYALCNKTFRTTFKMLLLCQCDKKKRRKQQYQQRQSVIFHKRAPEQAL
Cysteinyl leukotriene receptor 1 (Homo sapiens), sequence (Q9Y271 whole entry): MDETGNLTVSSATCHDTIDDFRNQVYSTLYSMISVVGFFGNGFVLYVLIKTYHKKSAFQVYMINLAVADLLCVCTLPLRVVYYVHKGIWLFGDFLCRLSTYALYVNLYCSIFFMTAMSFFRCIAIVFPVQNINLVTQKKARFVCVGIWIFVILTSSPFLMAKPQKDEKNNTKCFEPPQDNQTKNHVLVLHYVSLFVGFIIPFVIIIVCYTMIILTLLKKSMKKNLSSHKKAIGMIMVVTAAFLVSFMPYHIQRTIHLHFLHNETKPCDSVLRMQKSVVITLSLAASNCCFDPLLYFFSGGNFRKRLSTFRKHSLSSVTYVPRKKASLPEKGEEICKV
Aryl hydrocarbon receptor, sequence (P35869 whole entry): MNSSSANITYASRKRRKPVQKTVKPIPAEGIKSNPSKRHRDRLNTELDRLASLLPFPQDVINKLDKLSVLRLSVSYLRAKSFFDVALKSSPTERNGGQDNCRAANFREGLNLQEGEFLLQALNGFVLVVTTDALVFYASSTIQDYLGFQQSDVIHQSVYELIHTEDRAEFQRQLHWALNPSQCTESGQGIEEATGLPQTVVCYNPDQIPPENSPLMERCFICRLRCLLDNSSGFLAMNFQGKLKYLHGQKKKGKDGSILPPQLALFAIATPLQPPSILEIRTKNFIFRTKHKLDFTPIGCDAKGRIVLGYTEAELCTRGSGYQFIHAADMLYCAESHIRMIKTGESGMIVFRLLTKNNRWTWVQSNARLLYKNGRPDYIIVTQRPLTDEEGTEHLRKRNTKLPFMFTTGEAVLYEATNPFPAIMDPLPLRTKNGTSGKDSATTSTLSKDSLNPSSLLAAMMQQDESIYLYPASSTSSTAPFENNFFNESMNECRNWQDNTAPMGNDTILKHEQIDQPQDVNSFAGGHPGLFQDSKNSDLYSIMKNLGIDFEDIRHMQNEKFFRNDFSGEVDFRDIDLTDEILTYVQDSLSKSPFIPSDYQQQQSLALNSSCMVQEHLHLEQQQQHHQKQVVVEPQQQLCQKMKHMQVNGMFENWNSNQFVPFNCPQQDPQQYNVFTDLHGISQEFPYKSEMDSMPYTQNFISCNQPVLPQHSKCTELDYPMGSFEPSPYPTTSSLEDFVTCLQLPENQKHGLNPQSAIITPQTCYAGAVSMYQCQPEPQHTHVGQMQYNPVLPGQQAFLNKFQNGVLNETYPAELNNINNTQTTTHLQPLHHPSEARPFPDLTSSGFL
Histamine H1 receptor (Homo sapiens), sequence (P35367 whole entry): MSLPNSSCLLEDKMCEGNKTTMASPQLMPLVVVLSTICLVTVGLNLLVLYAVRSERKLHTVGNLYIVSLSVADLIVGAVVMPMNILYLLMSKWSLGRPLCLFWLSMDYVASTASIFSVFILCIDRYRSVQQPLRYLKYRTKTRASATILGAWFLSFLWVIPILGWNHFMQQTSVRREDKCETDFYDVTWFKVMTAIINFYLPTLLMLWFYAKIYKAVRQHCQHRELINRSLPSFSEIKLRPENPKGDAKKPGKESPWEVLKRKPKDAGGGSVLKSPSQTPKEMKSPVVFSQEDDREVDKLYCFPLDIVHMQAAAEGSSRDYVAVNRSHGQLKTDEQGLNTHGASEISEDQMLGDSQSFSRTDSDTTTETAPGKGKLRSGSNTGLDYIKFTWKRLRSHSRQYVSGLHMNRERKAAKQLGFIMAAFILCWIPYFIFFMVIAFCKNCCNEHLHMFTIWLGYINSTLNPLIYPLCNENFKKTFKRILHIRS
Adenosine receptor A2a (Homo sapiens), sequence (P29274 whole entry): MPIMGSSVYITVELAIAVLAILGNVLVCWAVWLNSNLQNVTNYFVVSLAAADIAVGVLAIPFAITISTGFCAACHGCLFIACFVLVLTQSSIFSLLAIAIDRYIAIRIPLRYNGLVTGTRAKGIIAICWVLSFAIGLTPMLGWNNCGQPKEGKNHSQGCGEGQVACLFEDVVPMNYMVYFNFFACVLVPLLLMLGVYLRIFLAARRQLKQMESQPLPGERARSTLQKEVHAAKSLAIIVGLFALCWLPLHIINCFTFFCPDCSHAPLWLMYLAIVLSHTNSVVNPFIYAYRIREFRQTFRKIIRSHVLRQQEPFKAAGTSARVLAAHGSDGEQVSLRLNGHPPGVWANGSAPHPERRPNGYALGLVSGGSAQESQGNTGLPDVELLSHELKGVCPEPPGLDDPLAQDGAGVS
P2Y purinoceptor 1 (Homo sapiens), sequence (P47900 whole entry): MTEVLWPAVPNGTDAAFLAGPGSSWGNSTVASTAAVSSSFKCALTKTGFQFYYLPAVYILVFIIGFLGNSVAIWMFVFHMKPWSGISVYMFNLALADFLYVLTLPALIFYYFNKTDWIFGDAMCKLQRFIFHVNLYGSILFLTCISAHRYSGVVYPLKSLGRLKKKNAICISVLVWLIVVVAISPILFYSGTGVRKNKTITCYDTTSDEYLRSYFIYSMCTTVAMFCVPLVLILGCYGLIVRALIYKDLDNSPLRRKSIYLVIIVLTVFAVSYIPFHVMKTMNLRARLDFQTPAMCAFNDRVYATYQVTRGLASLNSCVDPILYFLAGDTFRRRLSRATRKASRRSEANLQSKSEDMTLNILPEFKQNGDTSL
5-hydroxytryptamine receptor 2C (Homo sapiens), sequence (P28335 whole entry): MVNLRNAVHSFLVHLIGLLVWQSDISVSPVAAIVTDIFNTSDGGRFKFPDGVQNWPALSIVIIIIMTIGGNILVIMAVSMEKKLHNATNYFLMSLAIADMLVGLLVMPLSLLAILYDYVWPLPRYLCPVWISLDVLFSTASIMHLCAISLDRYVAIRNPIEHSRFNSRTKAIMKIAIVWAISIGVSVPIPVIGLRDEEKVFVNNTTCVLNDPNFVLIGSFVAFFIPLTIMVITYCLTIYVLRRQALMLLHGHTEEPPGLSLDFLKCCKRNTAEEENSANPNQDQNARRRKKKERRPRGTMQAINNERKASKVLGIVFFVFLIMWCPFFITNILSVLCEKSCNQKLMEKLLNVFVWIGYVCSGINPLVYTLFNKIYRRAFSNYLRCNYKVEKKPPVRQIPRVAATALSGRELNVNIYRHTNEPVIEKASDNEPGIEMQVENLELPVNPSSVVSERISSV
Beta-2 adrenergic receptor (Homo sapiens), sequence (P07550 whole entry, looked up): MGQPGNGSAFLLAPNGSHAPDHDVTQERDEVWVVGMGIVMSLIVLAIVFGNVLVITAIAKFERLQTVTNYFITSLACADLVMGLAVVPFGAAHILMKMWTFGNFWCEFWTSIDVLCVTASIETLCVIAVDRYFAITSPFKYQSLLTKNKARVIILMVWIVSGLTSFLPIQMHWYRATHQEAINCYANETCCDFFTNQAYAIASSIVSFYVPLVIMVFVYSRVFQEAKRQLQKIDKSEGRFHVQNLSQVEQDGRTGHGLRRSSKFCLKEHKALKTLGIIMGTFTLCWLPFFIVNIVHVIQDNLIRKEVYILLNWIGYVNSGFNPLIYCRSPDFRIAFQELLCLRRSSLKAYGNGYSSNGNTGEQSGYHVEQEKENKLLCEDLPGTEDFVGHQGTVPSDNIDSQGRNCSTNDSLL
Beta-1 adrenergic receptor (Homo sapiens), sequence (P08588 whole entry, looked up): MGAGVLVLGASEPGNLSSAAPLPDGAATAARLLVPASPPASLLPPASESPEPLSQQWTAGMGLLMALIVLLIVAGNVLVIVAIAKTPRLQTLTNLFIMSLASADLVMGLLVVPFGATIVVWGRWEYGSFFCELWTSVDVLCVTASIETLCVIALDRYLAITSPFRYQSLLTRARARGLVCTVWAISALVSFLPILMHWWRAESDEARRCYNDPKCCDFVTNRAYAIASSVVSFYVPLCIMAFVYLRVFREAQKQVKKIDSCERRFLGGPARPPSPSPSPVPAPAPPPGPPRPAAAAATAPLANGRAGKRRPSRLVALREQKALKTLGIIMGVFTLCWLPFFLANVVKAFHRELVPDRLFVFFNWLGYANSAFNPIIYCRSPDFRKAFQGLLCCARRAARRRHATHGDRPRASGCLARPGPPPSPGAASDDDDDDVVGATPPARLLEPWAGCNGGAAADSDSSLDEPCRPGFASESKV
D(4) dopamine receptor (Homo sapiens), sequence (P21917 whole entry): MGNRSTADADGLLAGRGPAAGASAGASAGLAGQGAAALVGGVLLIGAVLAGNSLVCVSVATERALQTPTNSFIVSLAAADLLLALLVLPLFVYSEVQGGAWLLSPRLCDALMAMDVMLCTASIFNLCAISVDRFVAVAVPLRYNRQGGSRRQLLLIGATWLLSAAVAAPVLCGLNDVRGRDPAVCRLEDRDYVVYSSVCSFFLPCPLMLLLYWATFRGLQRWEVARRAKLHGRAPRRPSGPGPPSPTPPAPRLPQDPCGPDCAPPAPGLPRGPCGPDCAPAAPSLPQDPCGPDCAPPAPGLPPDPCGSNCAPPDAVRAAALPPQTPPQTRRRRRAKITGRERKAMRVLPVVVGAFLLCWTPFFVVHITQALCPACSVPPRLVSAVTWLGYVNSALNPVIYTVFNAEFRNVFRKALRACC

CCOC(=O)N1[C@@H]2CC[C@H]1C[C@H](CN1CC[C@@H](N3Cc4ccccc4NC3=O)C1)C2
Activity [1]: 81% | Activity [2]: 2% | Activity [3]: Not Active | EC50 [4]: 14 nM | Activity [5]: 2% | Activity [6]: 51% | Activity [7]: 0.08% | Activity [8]: -0.83% | Activity [9]: 1.73% | Activity [10]: 1% | Activity [11]: 0.07% | Activity [12]: 0.22% | Activity [13]: -0.54% | inhibition [14]: 2.25% | inhibition [15]: 5.57% | inhibition [16]: 6.45% | inhibition [17]: 27.6% | inhibition [18]: 0.18% | inhibition [19]: 11.6% | inhibition [20]: 5.59% | inhibition [21]: 0.46% | inhibition [22]: 15.4% | inhibition [23]: -8.79% | Activity [24]: -0.01%
